Data from patent US20050112573A1, “Method of detecting toxic substance” (priority 2001, published 2005).

Tested on: yeast genes (level of expressed mRNA)
Test: DNA chip analysis of expressed mRNA of yeast genes after 2 h culture with a toxic chemical substance
Format: cell-based, Saccharomyces cerevisiae S288C
How it was run: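 S. cerevisiae S288C grown at 25° C in YPD; toxicant added at log phase at growth-inhibitory, non-lethal levels for 2 h, untreated cells as control. Poly(A) mRNA reverse-transcribed with Cy3/Cy5-dUTP, hybridized to whole-genome chip at 65° C >12 h; value is fluorescence ratio versus untreated.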

S=C([S-])NCCNC(=S)[S-].[Zn+2] [(11), zinc N,N′-ethylenebis(dithiocarbamate)]
3.7: level of expressed mRNA in the presence of chemical substance/in its absence (gene YEL011W)
1.6: level of expressed mRNA in the presence of chemical substance/in its absence (gene YDR410C) | The level of expressed mRNA in the presence of chemical substance/absence: YEL044W (gene YEL044W) | level of expressed mRNA in the presence of chemical substance/in its absence (gene YGL001C) | The level of expressed mRNA in the presence of chemical substance/absence: YGR237C (gene YGR237C) | The level of expressed mRNA in the presence of chemical substance/absence: YGR250C (gene YGR250C)
1.5: level of expressed mRNA in the presence of chemical substance/in its absence (gene YBR111C) | The level of expressed mRNA in the presence of chemical substance/absence: YBR255W (gene YBR255W) | level of expressed mRNA in the presence of chemical substance/in its absence (gene YCL009C) | The level of expressed mRNA in the presence of chemical substance/absence: YCL056C (gene YCL056C) | level of expressed mRNA in the presence of chemical substance/in its absence (gene YER069W) | The level of expressed mRNA in the presence of chemical substance/absence: YER182W (gene YER182W)
0.1: The level of expressed mRNA in the presence of chemical substance/absence: YAL018C (gene YAL018C) | The level of expressed mRNA in the presence of chemical substance/absence: YBR051W (gene YBR051W) | level of expressed mRNA in the presence of chemical substance/in its absence (gene YDR009W)
0.3: The level of expressed mRNA in the presence of chemical substance/absence: YDR128W (gene YDR128W)
1.9: level of expressed mRNA in the presence of chemical substance/in its absence (gene YBR183W) | The level of expressed mRNA in the presence of chemical substance/absence: YDR338C (gene YDR338C)
2.8: level of expressed mRNA in the presence of chemical substance/in its absence (gene YDL022W)
2.6: The level of expressed mRNA in the presence of chemical substance/absence: YDL046W (gene YDL046W)
1.1: The level of expressed mRNA in the presence of chemical substance/absence: YAR047C (gene YAR047C) | level of expressed mRNA in the presence of chemical substance/in its absence (gene YAR071W) | level of expressed mRNA in the presence of chemical substance/in its absence (gene YBR050C) | level of expressed mRNA in the presence of chemical substance/in its absence (gene YBR145W) | The level of expressed mRNA in the presence of chemical substance/absence: YCL044C (gene YCL044C) | The level of expressed mRNA in the presence of chemical substance/absence: YCR007C (gene YCR007C) | The level of expressed mRNA in the presence of chemical substance/absence: YDL193W (gene YDL193W) | The level of expressed mRNA in the presence of chemical substance/absence: YDR078C (gene YDR078C) | level of expressed mRNA in the presence of chemical substance/in its absence (gene YGL039W) | level of expressed mRNA in the presence of chemical substance/in its absence (gene YGL134W)
3.2: The level of expressed mRNA in the presence of chemical substance/absence: YCL042W (gene YCL042W)
0.4: The level of expressed mRNA in the presence of chemical substance/absence: YBR124W (gene YBR124W) | The level of expressed mRNA in the presence of chemical substance/absence: YDR278C (gene YDR278C) | level of expressed mRNA in the presence of chemical substance/in its absence (gene YDR380W)
0.5: The level of expressed mRNA in the presence of chemical substance/absence: YGR156W (gene YGR156W)
0.8: level of expressed mRNA in the presence of chemical substance/in its absence (gene YBR068C) | The level of expressed mRNA in the presence of chemical substance/absence: YBR162C (gene YBR162C) | level of expressed mRNA in the presence of chemical substance/in its absence (gene YCR037C) | The level of expressed mRNA in the presence of chemical substance/absence: YDR281C (gene YDR281C) | The level of expressed mRNA in the presence of chemical substance/absence: YFR026C (gene YFR026C) | level of expressed mRNA in the presence of chemical substance/in its absence (gene YGL022W) | The level of expressed mRNA in the presence of chemical substance/absence: YGL088W (gene YGL088W) | The level of expressed mRNA in the presence of chemical substance/absence: YGL183C (gene YGL183C) | level of expressed mRNA in the presence of chemical substance/in its absence (gene YGL209W) | level of expressed mRNA in the presence of chemical substance/in its absence (gene YGR060W) | The level of expressed mRNA in the presence of chemical substance/absence: YGR211W (gene YGR211W)
2.3: level of expressed mRNA in the presence of chemical substance/in its absence (gene YBL001C)
1.0: level of expressed mRNA in the presence of chemical substance/in its absence (gene YAL038W) | The level of expressed mRNA in the presence of chemical substance/absence: YAL049C (gene YAL049C) | The level of expressed mRNA in the presence of chemical substance/absence: YDR421W (gene YDR421W) | level of expressed mRNA in the presence of chemical substance/in its absence (gene YGL126W) | level of expressed mRNA in the presence of chemical substance/in its absence (gene YGL253W) | The level of expressed mRNA in the presence of chemical substance/absence: YGR198W (gene YGR198W) | The level of expressed mRNA in the presence of chemical substance/absence: YGR210C (gene YGR210C)
2.0: level of expressed mRNA in the presence of chemical substance/in its absence (gene YBR035C) | The level of expressed mRNA in the presence of chemical substance/absence: YBR287W (gene YBR287W) | The level of expressed mRNA in the presence of chemical substance/absence: YDL089W (gene YDL089W)
1.8: level of expressed mRNA in the presence of chemical substance/in its absence (gene YBR014C) | level of expressed mRNA in the presence of chemical substance/in its absence (gene YCL064C) | level of expressed mRNA in the presence of chemical substance/in its absence (gene YDR019C) | level of expressed mRNA in the presence of chemical substance/in its absence (gene YGL104C)
0.6: The level of expressed mRNA in the presence of chemical substance/absence: YBL044W (gene YBL044W) | The level of expressed mRNA in the presence of chemical substance/absence: YBR063C (gene YBR063C) | The level of expressed mRNA in the presence of chemical substance/absence: YDR250C (gene YDR250C) | The level of expressed mRNA in the presence of chemical substance/absence: YDR271C (gene YDR271C) | The level of expressed mRNA in the presence of chemical substance/absence: YGL041C (gene YGL041C)
1.2: The level of expressed mRNA in the presence of chemical substance/absence: YBR013C (gene YBR013C) | The level of expressed mRNA in the presence of chemical substance/absence: YBR066C (gene YBR066C) | level of expressed mRNA in the presence of chemical substance/in its absence (gene YCR048W) | The level of expressed mRNA in the presence of chemical substance/absence: YDL173W (gene YDL173W) | The level of expressed mRNA in the presence of chemical substance/absence: YDR504C (gene YDR504C) | The level of expressed mRNA in the presence of chemical substance/absence: YGL045W (gene YGL045W) | The level of expressed mRNA in the presence of chemical substance/absence: YGR266W (gene YGR266W) | The level of expressed mRNA in the presence of chemical substance/absence: YGR277C (gene YGR277C)
0.9: The level of expressed mRNA in the presence of chemical substance/absence: YBL100C (gene YBL100C) | level of expressed mRNA in the presence of chemical substance/in its absence (gene YBR023C) | The level of expressed mRNA in the presence of chemical substance/absence: YDR109C (gene YDR109C) | The level of expressed mRNA in the presence of chemical substance/absence: YDR425W (gene YDR425W) | The level of expressed mRNA in the presence of chemical substance/absence: YDR485C (gene YDR485C) | level of expressed mRNA in the presence of chemical substance/in its absence (gene YER026C) | The level of expressed mRNA in the presence of chemical substance/absence: YER092W (gene YER092W) | level of expressed mRNA in the presence of chemical substance/in its absence (gene YGL154C) | The level of expressed mRNA in the presence of chemical substance/absence: YGR139W (gene YGR139W)
1.7: The level of expressed mRNA in the presence of chemical substance/absence: YAL014C (gene YAL014C) | The level of expressed mRNA in the presence of chemical substance/absence: YDR140W (gene YDR140W) | The level of expressed mRNA in the presence of chemical substance/absence: YDR366C (gene YDR366C) | The level of expressed mRNA in the presence of chemical substance/absence: YGR243W (gene YGR243W)
2.1: level of expressed mRNA in the presence of chemical substance/in its absence (gene YDR487C)
5.4: The level of expressed mRNA in the presence of chemical substance/absence: YFL042C (gene YFL042C)
1.3: level of expressed mRNA in the presence of chemical substance/in its absence (gene YAL054C) | level of expressed mRNA in the presence of chemical substance/in its absence (gene YBR222C) | level of expressed mRNA in the presence of chemical substance/in its absence (gene YCR098C) | The level of expressed mRNA in the presence of chemical substance/absence: YDR133C (gene YDR133C) | The level of expressed mRNA in the presence of chemical substance/absence: YDR316W (gene YDR316W) | level of expressed mRNA in the presence of chemical substance/in its absence (gene YDR502C) | level of expressed mRNA in the presence of chemical substance/in its absence (gene YEL020C) | The level of expressed mRNA in the presence of chemical substance/absence: YFR056C (gene YFR056C) | The level of expressed mRNA in the presence of chemical substance/absence: YGL057C (gene YGL057C) | The level of expressed mRNA in the presence of chemical substance/absence: YGL223C (gene YGL223C)
3.9: level of expressed mRNA in the presence of chemical substance/in its absence (gene YFR015C)
2.4: level of expressed mRNA in the presence of chemical substance/in its absence (gene YBR299W)
1.4: level of expressed mRNA in the presence of chemical substance/in its absence (gene YAL044C) | The level of expressed mRNA in the presence of chemical substance/absence: YBR129C (gene YBR129C) | The level of expressed mRNA in the presence of chemical substance/absence: YBR281C (gene YBR281C) | The level of expressed mRNA in the presence of chemical substance/absence: YDR071C (gene YDR071C) | The level of expressed mRNA in the presence of chemical substance/absence: YGR038W (gene YGR038W)
4.0: level of expressed mRNA in the presence of chemical substance/in its absence (gene YAL012W)
0.7: The level of expressed mRNA in the presence of chemical substance/absence: YAL017W (gene YAL017W) | The level of expressed mRNA in the presence of chemical substance/absence: YAR064W (gene YAR064W) | The level of expressed mRNA in the presence of chemical substance/absence: YBR012C (gene YBR012C) | level of expressed mRNA in the presence of chemical substance/in its absence (gene YBR029C) | The level of expressed mRNA in the presence of chemical substance/absence: YDL233W (gene YDL233W) | The level of expressed mRNA in the presence of chemical substance/absence: YDR090C (gene YDR090C) | The level of expressed mRNA in the presence of chemical substance/absence: YDR221W (gene YDR221W)
